“Also recorded” adds a separate entry of the source.
Key:
[1] = test system: Albino mice; assay: Nicotine-induced convulsions and death in mice; assay type: in vivo
Method: Albino mice were divided into different groups (N=5) and injected with different doses of nicotine dissolved in water. The animals were injected (i.p) with doses 0.8, 1.6, 3.2 and 6.4 mg/kg. The animals were continuously observed for 2 hours for appearance of any changes in behavior such as tremors, convulsions (clonic or tonic), abnormal movements changes in tail position and shapes, changes in locomotor activity and death.
Then after 5 minutes nicotine LD25 was then administered and the animals were observed continuously for any changes in behavior, convulsions or death. The time of convulsions and death were recorded.

[2] = test system: Male Wistar rats; assay: Nicotine and food consumption in rats; assay type: in vivo
Method: Male Wistar rats (200 g body weight) were divided at random into various groups (N=6 animals per group). Each animal was placed in a stainless steel cage and provided with a known weight of normal rat chow food pellets and drinking bottle containing a known volume of aqueous 0.025% sodium carboxymethylcellulose containing either nicotine acid tartarate to provide a final concentration of 40 μg/ml (in case of control groups) or the same concentration of nicotine plus the indicated concentrations of the whole extract, one of its fractions or peganine. The latter were added in form of their emulsions in 0.25% aqueous sodium carboxymethylcellulose in volumes that provide a final concentration of 0.025% of sodium carboxymethylcellulose in the drinking fluid. The animals were allowed both food and the drinking liquid ad libitum. The room temperature where the animals were placed was maintained at 23±2° C. The light cycle was kept at 12 h light and 12 h dark. The relative humidity was maintained at 75±5%. Both food and drinking liquid consumptions were measured every 2 days and at the end of the treatment which continued for complete seven consecutive days.
All results were reported as their means±s. e. mean with N=number of experiments. Statistical significance between control and treated groups were performed using student's t-test.

[3] = cited from earlier work
[4] = test system: dopamine turnover in the mesolimbic system; conditions: dose 5.6 mg/kg; nicotine 1 mg/kg; rats; cited from earlier work
[5] = in vivo; cited from earlier work
[6] = peganine 140 mg/100 ml (1.4 mg/ml) + nicotine 40 μg/ml, vs control
[7] = peganine 140 mg/100 ml + nicotine 40 μg/ml in drinking water, 7 days

Question: Which Actions ([1]; Nicotine 1.6 mg/kg (i.p)) does the source give for CN1CCCC1c1cccnc1 (stereo not drawn) [Nicotine] here?
Answer: f) No death; also recorded: a) Increase in locomotor activity; also recorded: b) Raising of tail; also recorded: c) Tremors; also recorded: d) Shaking of the body; also recorded: e) Increase in respiratory rate

Question: What about the Actions ([1]; Nicotine 3.2 mg/kg (i.p)) of the same compound?
Answer: a) Tremors; also recorded: b) Fanning of tail; also recorded: c) Convulsions (Clonic-type); also recorded: d) Tremors; also recorded: e) Salivation; also recorded: f) No death

Question: And the Actions ([1]; Nicotine 6.4 mg/kg (i.p))?
Answer: a) Circular movements; also recorded: b) Convulsions; also recorded: c) Death after 3 minutes

Question: For O[C@H]1CCN2Cc3ccccc3N=C12 [peganine, 1,2,3,9-tetrahydropyrolo[2,1-b]quinazolin-3-ol], which “% decrease in food consumed” value [2, 6] is on record?
Answer: 77.8%

Question: What about the “% decrease in nicotine consumed” value [2, 6] of the same compound?
Answer: 79%

Question: And the “Liquid consumed daily per 200 g rat per day” value [2, 7]?
Answer: 5.5 ± 0.13 mL

Question: What about the “Quantity of food consumed per 200 g rat per day” value [2, 7] of the same compound?
Answer: 5.66 ± 0.3 g

Question: What about the “Quantity of nicotine consumed per day” value [2, 7] of the same compound?
Answer: 0.22 mg

Question: And the “Effect on isolated gut” value ([3]; isolated gut)?
Answer: inhibit peristalsis of isolated gut

Question: What about the Cardiac effect ([3]; isolated heart) of the same compound?
Answer: negative inotropic effect of peganine with reduced coronary flow

Question: Which “Effect on nicotine-induced increase in dopamine turnover” value [4] does the source give for c1cnc2cc3c(cc2n1)[C@@H]1CNC[C@H]3C1 [vareniciline] here?
Answer: significantly blocked

Question: With (−)-cytisine as the compound, how does the “Blood brain barrier penetrability” value [5] read?
Answer: poor blood brain barrier penetrability

Source: patent US20100021567A1, “Peganine Isolated from Anisotes Trisulcus L. as a Smoking Deterrent and Anorxigenic Agent” (priority 2006, published 2010)
